Here are results for 1 compound from ChEMBL document CHEMBL5321209, “Design, synthesis of novel benzimidazole derivatives as ENL inhibitors suppressing leukemia cells viability via downregulating the expression of MYC” (Eur J Med Chem, 2023).

In general, ΔTm refers to the shift of the melting midpoint relative to a reference. The term AUC(0-t) denotes exposure summed from dosing to a finite time, without extrapolation to infinity. As a reminder, the Tmax is the time from dosing to the highest level. A word on the half-life: it is how long it takes for the measured level to halve. The low end stands for rapid decline, the high end for slow decline. The pIC50 is the IC50 on a negative log10 scale, so that one unit is a factor of ten. The term inhibition denotes the drop in the measured response relative to a control, in per cent. High values mean a response far below the control, low ones a response near the control. In general, pKd refers to the negative decadic logarithm of the Kd, by convention in mol/L. As usually defined, the MRT inf is the average time that molecules of a dose stay in the body. By AUC(0-inf) is commonly meant total exposure, with the tail of the curve extrapolated. Read a high AUC(0-inf) as high exposure. Broadly, the Cmax is the maximum level reached in the sampled fluid or tissue.

For data set [1], the target named is T1, Protein ENL (Homo sapiens) (UniProt Q03111).
T1 sequence (whole entry): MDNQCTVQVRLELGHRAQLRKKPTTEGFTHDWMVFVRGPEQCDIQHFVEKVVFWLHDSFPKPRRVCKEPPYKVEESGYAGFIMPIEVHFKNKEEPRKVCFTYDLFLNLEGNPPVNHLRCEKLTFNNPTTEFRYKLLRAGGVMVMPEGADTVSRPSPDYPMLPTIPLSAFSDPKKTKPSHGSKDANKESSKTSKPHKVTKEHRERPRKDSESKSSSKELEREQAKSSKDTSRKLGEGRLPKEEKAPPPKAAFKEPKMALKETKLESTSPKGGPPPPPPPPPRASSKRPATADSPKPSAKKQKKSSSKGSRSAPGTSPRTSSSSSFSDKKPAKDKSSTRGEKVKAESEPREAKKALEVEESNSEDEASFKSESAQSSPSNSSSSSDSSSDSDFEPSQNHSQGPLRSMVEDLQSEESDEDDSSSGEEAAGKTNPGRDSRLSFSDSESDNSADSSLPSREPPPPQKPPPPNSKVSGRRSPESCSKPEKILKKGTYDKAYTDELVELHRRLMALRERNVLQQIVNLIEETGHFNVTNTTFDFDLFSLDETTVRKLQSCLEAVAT
The note with it: dose 25.0 µM.

Data set [2] deals with MOLM-13. The data set can be described thus: Potency index, ratio of SGC-iMLLT IC50 to test compound IC50 for antiproliferative activity against human MOLM-13 cells. Format: functional.
The nature of data set [3]: AUC (0 to t) in BALB/c mouse at 30 mg/kg, po measured after 0.5 to 24 hrs by LC-MS/MS assay. Format: ADME, organism-based. More on the design: dose 30 mg/kg, time 0.5-24 hrs, route po. The note with it: in vivo.
Data set [4] can be described thus: Tmax in BALB/c mouse at 30 mg/kg, po measured after 0.5 to 24 hrs by LC-MS/MS assay. Format: ADME, organism-based. The note with it: in vivo, time 0.5-24 hrs.
Data set [5] is described as follows: Half life in BALB/c mouse at 30 mg/kg, po measured after 0.5 to 24 hrs by LC-MS/MS assay. Format: ADME, organism-based. The note with it: in vivo, time 0.5-24 hrs.
The test system of data set [6] is MOLM-13. The data set can be described thus: Antiproliferative activity against human MOLM-13 cells assessed as inhibition of cell growth measured after 72 hrs by Cell Titer-Glo luminescent assay. The note with it: MOLM-13, 72 h. Format: functional, cell-based. On the technique in general: Cellular ATP, detected with luciferase, serves as a proxy for viable cell number.

Data set [7] deals with T1, Protein ENL (Homo sapiens). The note with it: dose 333.0 nM, time 45.0 min.
Data set [8] deals with YEATS domain-containing protein 4 (Homo sapiens) (UniProt O95619). Briefly: Binding affinity recombinant GAS41 YEATS domain (15 to 159 residues) (unknown origin) expressed in Escherichia coli BL21(DE3) cells by SPR assay.
Data set [9] has the same target. Briefly: Binding affinity recombinant GAS41 YEATS domain (15 to 159 residues) (unknown origin) assessed as thermal stability.
For data set [10], the target named is T1, Protein ENL (Homo sapiens). The note with it: dose 111.0 nM, time 45.0 min.
Data set [11] concerns the target T2, Protein ENL (Homo sapiens, UniProt Q03111).
T2 sequence (Q03111 whole entry): T1 sequence (whole entry)
Briefly: Binding affinity to C-terminal 6xHis-tagged ENL YEATS domain (1 to 148 residues) (unknown origin) expressed in Escherichia coli BL21(DE3) cells assessed as dissociation constant by SPR analysis.

The nature of data set [12]: Downregulation of MYC gene expression in human MOLM-13 cells assessed as fold increase at 5 uM incubated for 72 hrs in presence of JQ-1 by RT-PCR method. Format: functional.
Data set [13] is described as follows: Cytotoxicity against HUVEC-C incubated for 72 hrs by Cell Titer-Glo luminescent assay. Type of data set: toxicity, cell-based. The note with it: human.
The nature of data set [14]: Downregulation of MYC mRNA level in human MOLM-13 cells at 5 uM incubated for 72 hrs by RT-PCR method relative to control. Format: functional.
A short description of data set [15]: Downregulation of MYC gene expression in human MOLM-13 cells assessed as decrease in fold change at 5 uM for 72 hrs by RT-PCR method relative to JQ-1. Type of data set: functional.
Data set [16] addresses T1, Protein ENL (Homo sapiens). The note with it: dose 6.3 µM.
Description: Binding affinity to C-terminal 6xHis-tagged ENL YEATS domain (1 to 148 residues) (unknown origin) expressed in Escherichia coli BL21(DE3) cells assessed as thermal stability by measuring change in melting temperature at 6.3 uM by SYPRO dye-based thermal shift assay
Data set [17] addresses T1, Protein ENL (Homo sapiens). The note with it: dose 50.0 µM.
A short description of data set [18]: MRT (0 to infinity) in BALB/c mouse at 30 mg/kg, po measured after 0.5 to 24 hrs by LC-MS/MS assay. Type of data set: ADME, organism-based. The note with it: in vivo, time 0.5-24 hrs.
The next data set has as its system MRC5. The data set can be described thus: Cytotoxicity against human MRC5 cells incubated for 72 hrs by Cell Titer-Glo luminescent assay. The note with it: mrc5, 72 h. Type of data set: toxicity, cell-based.
Another data set has as its system MV4-11. The data set can be described thus: cells. The note with it: Homo sapiens, MV4-11, 72 h.
Data set [19] is described as follows: AUC (0 to infinity) in BALB/c mouse at 30 mg/kg, po measured after 0.5 to 24 hrs by LC-MS/MS assay. The note with it: in vivo. More on the design: time lower 0.5 hrs, dose 30 mg/kg, time upper 24 hrs, route po. Type of data set: ADME, organism-based.
The target of data set [20] is T1, Protein ENL (Homo sapiens). The note with it: dose 12.5 µM.
Description: Binding affinity to C-terminal 6xHis-tagged ENL YEATS domain (1 to 148 residues) (unknown origin) expressed in Escherichia coli BL21(DE3) cells assessed as thermal stability by measuring change in melting temperature at 12.5 uM by SYPRO dye-based thermal shift assay
Data set [21] addresses T2, Protein ENL. The data set can be described thus: Inhibition of C-terminal 6xHis-tagged ENL YEATS domain (1 to 148 residues) (unknown origin) expressed in Escherichia coli BL21(DE3) cells using biotin-H3K27ace as substrate incubated for 45 mins by alpha screen assay. Background: In Alpha technology, singlet oxygen from a donor bead excites a nearby acceptor bead.
Data set [22] in a line: Cmax in BALB/c mouse at 30 mg/kg, po measured after 0.5 to 24 hrs by LC-MS/MS assay. Format: ADME, organism-based. More on the design: dose 30 mg/kg, time 0.5-24 hrs, route po. The note with it: in vivo.

pIC50, pKd: −log10 of the molar value. Activity calls are given as the source filed them. No cut-off for these calls is given here. Where only a bound is given, the exact number is not on record here.

YEATS domain-containing protein 4 (Homo sapiens), sequence (O95619 whole entry, the tested form may be a part): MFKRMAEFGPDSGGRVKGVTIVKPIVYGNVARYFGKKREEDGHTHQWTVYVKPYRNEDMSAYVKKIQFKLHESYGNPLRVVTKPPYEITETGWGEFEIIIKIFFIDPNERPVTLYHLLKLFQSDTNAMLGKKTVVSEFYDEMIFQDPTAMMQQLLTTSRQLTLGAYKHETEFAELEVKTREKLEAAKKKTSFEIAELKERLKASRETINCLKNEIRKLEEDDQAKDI
Description for MV4-11: Antiproliferative activity against human MV4-11 cells assessed as inhibition of cell growth measured after 72 hrs by Cell Titer-Glo luminescent assay

`C[C@H]1CCCN1Cc1nc2cc(NC(=O)c3ccc4c(c3)c3ccccc3c(=O)n4C)ccc2[nH]1`: the ΔTm in data set [1] stood at 4.3 °C; in data set [16], 1.9 °C; in data set [17], 5.5 °C; in [20], 3.3 °C. Moreover, the “Ratio IC50” value in the data set with MOLM-13 [2] came out at 9. In addition, the exposure AUC(0-t) in data set [3] came to 0.257 µg·h/mL. The time of peak concentration (Tmax) in data set [4] stood at 0.5 h. The same compound had a half-life in data set [5] of 5.2 h. The negative logarithm of the IC50 (pIC50) was 5.08 with MOLM-13 [6], 5.32 in the data set with MV4-11 and 7.81 against Protein ENL [21]. Also, the values for the inhibition in data set [7] and in [10] were 100% and 99.6%, respectively. The outcome in data set [8] and in data set [9] was inactive. Besides, the pKd at Protein ENL [11] was 7.77. The “fold change (FC)” value is reported as >5 in [12] and <2.5 in data set [15]. Moreover, the Activity entry is listed as “Non-Toxic” in [13], 50% in data set [14] and “Non-Toxic” in the data set with MRC5. In data set [18], this compound returned an MRT inf of 5.5 h. Also, the AUC(0-inf) in data set [19] is 0.272 µg·h/mL. Also, the Cmax in data set [22] was determined as 0.0718 µg/mL.
